pIC50: −log10 of the molar value.
How the values were obtained:
[1] = biological target: Wee-1 kinase (Homo sapiens (Human), UniProt P30291); assay: Inhibitory activity against Wee-1 kinase (ADP-GLO chemiluminescence); assay type: biochemical; details: 60 min reaction at room temperature
Experimental: Example 71. Assay of Inhibitory Activity of Compounds of the Present Invention Against Wee-1 Kinase
After the serially diluted compound and an enzyme were mixed, the mixture was incubated at room temperature (25° C.) for 15 min, and then centrifuged at 1000 rpm for 1 min for mixing. 5 μL of substrate was added to start the reaction. After the mixture was reacted at room temperature for 60 min, 5 μL of ADP-GLO reagent was added and the mixture was centrifuged at 1000 rpm for 1 min for mixing. The mixture was subsequently incubated at room temperature for 60 min, and then 10 μL of kinase detection reagent was added. The mixture was incubated for 60 min, and the chemiluminescence was determined. The inhibition percentage of the enzyme activity by the compounds was calculated compared with the DMSO group, and the IC50 values were also calculated.

[2] = tested on: MIA PaCa-2 cells; assay: In-vitro anti-proliferative activity on MIA PaCa-2 cells (intracellular ATP content); assay type: cell-based; details: compound alone, 72 h after dosing, read-out: IC50 Without GMC, anti-proliferative activity on MIA PaCa-2 cells
Experimental: Example 72. In-Vitro Anti-Proliferative Activity of the Compounds of the Present Invention on MIA PaCa-2 Cells
(§1) MIA PaCa-2 cells were seeded on a 384-well plate at 3000 cells/well. After overnight adherence culture, DMSO or the compounds serially diluted 1:5 from 5 μM were added. The viability was assessed 72 h after dosing by measuring the intracellular ATP content. The inhibition percentage of viable cells by the compounds was calculated by comparing with the DMSO group, and the IC50 value was calculated.

[3] = tested on: MIA PaCa-2 cells; assay: In-vitro anti-proliferative activity in combination with gemcitabine (GMC) on MIA PaCa-2 cells; assay type: cell-based
Experimental: Example 73. In-Vitro Anti-Proliferative Activity of the Compounds of the Present Invention in Combination with Gemcitabine (GMC) on MIA PaCa-2 Cells
as §1, with “cells/well, and 20 nM gemcitabine was added.” for “cells/well.”, “100 nM” for “5 μM”

[4] = read-out: IC50 GMC (20 nM), anti-proliferative activity on MIA PaCa-2 cells, in combination with 20 nM gemcitabine, 72 h after dosing, ATP content
[5] = Homo sapiens, MIA PaCa-2, 72 h, read-out: IC50 GMC (20 nM), anti-proliferative activity on MIA PaCa-2 cells, in combination with 20 nM gemcitabine, 72 h after dosing, ATP content

Sequence of Wee-1 kinase (P30291 whole entry): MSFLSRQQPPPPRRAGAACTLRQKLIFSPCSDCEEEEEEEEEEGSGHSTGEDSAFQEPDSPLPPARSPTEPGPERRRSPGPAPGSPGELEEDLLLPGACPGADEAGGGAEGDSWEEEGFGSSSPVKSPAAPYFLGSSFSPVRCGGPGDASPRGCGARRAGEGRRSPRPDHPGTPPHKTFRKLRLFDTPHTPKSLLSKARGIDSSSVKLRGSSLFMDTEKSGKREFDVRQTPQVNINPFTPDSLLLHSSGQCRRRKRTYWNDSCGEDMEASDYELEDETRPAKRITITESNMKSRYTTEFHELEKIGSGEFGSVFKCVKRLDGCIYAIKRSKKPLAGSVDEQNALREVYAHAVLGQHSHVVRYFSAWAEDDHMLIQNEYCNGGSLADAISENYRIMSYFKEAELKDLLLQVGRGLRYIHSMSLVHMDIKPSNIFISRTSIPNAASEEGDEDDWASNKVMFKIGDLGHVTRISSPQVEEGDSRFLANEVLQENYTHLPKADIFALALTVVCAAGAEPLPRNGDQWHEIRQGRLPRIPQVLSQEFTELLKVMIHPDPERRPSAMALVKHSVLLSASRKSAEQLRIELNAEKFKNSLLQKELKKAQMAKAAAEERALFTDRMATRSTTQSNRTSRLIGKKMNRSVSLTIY

CN1Cc2cc(Nc3ncc4c(F)cn(-c5ccc(F)c(N=S(C)(C)=O)n5)c4n3)cc3c2C(CCC3)C1 (stereo not drawn) [Compound 64]
pIC50 [1]: 8.47 | pIC50 [2]: 6.75 | pIC50 [3, 4]: 8.60

[2H]C([2H])([2H])S(=O)(=Nc1cccc(-n2cc(F)c3cnc(Nc4cc5c6c(c4)CN(C)C[C@H]6CCC5)nc32)n1)C([2H])([2H])[2H] [Compound 69]
pIC50 [1]: 8.81

CCS(=O)(CC)=Nc1cccc(-n2cc(F)c3cnc(Nc4cc5c6c(c4)CN(C)CC6CCC5)nc32)n1 (stereo not drawn) [Compound 2]
pIC50 [1]: 8.71 | pIC50 ([2]; Homo sapiens, MIA PaCa-2, 72 h): 6.97 | pIC50 [3, 5]: 8.62

CN1Cc2cc(Nc3ncc4c(F)cn(-c5cccc(N=S6(=O)CCCC6)n5)c4n3)cc3c2C(CCC3)C1 (stereo not drawn) [Compound 4]
pIC50 [1]: 8.61 | pIC50 ([2]; Homo sapiens, MIA PaCa-2, 72 h): 6.94 | pIC50 [3, 5]: 8.68

CN1Cc2cc(Nc3ncc4c(F)cn(-c5cccc(N=S6(=O)CCOCC6)n5)c4n3)cc3c2C(CCC3)C1 (stereo not drawn) [Compound 5]
pIC50 [1]: 8.55 | pIC50 [2]: 6.86 | pIC50 [3, 4]: 8.62

CN1Cc2cc(Nc3ncc4c(F)cn(-c5cccc(N=S6(=O)CCC6)n5)c4n3)cc3c2C(CCC3)C1 (stereo not drawn) [Compound 3]
pIC50 [1]: 8.61 | pIC50 ([2]; Homo sapiens, MIA PaCa-2, 72 h): 6.89 | pIC50 [3, 5]: 8.64

CN1Cc2cc(Nc3ncc4c(F)cn(-c5ccc(Cl)c(N=S(C)(C)=O)n5)c4n3)cc3c2C(CCC3)C1 (stereo not drawn) [Compound 24]
pIC50 [1]: 8.60 | pIC50 ([2]; Homo sapiens, MIA PaCa-2, 72 h): 6.74 | pIC50 [3, 5]: 8.80

CN1Cc2cc(Nc3ncc4c(F)cn(-c5cccc(N=S(C)(C)=O)n5)c4n3)cc3c2C(CCC3)C1 (stereo not drawn) [Compound 63]
pIC50 [1]: 8.46 | pIC50 [2]: 6.76 | pIC50 [3, 5]: 8.64

[2H]C([2H])([2H])N1Cc2cc(Nc3ncc4c(F)cn(-c5ccc(F)c(N=S(C)(C)=O)n5)c4n3)cc3c2[C@H](CCC3)C1 [Compound 68]
pIC50 [1]: 8.71 | pIC50 ([2]; Homo sapiens, MIA PaCa-2, 72 h): 7.12 | pIC50 [3, 5]: > 9.00 | pIC50 [3, 4]: 9.05

[2H]C([2H])([2H])N1Cc2cc(Nc3ncc4c(F)cn(-c5cccc(N=S(C)(C)=O)n5)c4n3)cc3c2[C@H](CCC3)C1 [Compound 67]
pIC50 [1]: 8.73 | pIC50 ([2]; Homo sapiens, MIA PaCa-2, 72 h): 7.31 | pIC50 [3, 5]: > 9.00 | pIC50 [3, 4]: 9.10

CN1Cc2cc(Nc3ncc4c(F)cn(-c5ccc(F)c(N=S(C)(C)=O)n5)c4n3)cc3c2[C@H](CCC3)C1 [Compound 65]
pIC50 [1]: 8.81 | pIC50 ([2]; Homo sapiens, MIA PaCa-2, 72 h): 7.11 | pIC50 [3, 5]: 8.85

[2H]C([2H])([2H])S(=O)(=Nc1cccc(-n2cc(F)c3cnc(Nc4cc5c6c(c4)CN(C)CC6CCC5)nc32)n1)C([2H])([2H])[2H] (stereo not drawn) [Compound 21]
pIC50 [1]: 8.78 | pIC50 ([2]; Homo sapiens, MIA PaCa-2, 72 h): 7.07 | pIC50 [3, 5]: 8.77

CN1Cc2cc(Nc3ncc4c(F)cn(-c5ccc(F)c(N=S(C)(C)=O)n5)c4n3)cc3c2C(CCC3)C1 (stereo not drawn) [Compound 23]
pIC50 [1]: 8.69 | pIC50 ([2]; Homo sapiens, MIA PaCa-2, 72 h): 6.81 | pIC50 [3, 4]: 8.92

CCN1Cc2cc(Nc3ncc4c(C)cn(-c5cccc(N=S(C)(C)=O)n5)c4n3)cc3c2C(CCC3)C1 (stereo not drawn) [Compound 28]
pIC50 [1]: 8.63 | pIC50 ([2]; Homo sapiens, MIA PaCa-2, 72 h): 6.76 | pIC50 [3, 5]: 8.89

CN1Cc2cc(Nc3ncc4c(F)cn(-c5cccc(N=S(C)(C)=O)n5)c4n3)cc3c2[C@H](CCC3)C1 [Compound 66]
pIC50 [1]: 8.92 | pIC50 ([2]; Homo sapiens, MIA PaCa-2, 72 h): 7.55 | pIC50 [3, 5]: > 9.00 | pIC50 [3, 4]: 9.05

CN1Cc2cc(Nc3ncc4c(F)cn(-c5cccc(N=S(C)(C)=O)n5)c4n3)cc3c2C(CCC3)C1 (stereo not drawn) [Compound 1]
pIC50 [1]: > 8.70 | pIC50 [2]: 7.43 | pIC50 [3, 4]: 8.77

C=CCn1c(=O)c2cnc(Nc3ccc(N4CCN(C)CC4)cc3)nc2n1-c1cccc(C(C)(C)O)n1 [MK-1775, reference compound]
pIC50 ([2]; Homo sapiens, MIA PaCa-2, 72 h): 6.04 | pIC50 [3, 5]: 7.62

CN1Cc2cc(Nc3ncc4c(F)cn(-c5cccc(P(C)(C)=O)n5)c4n3)cc3c2C(CCC3)C1 (stereo not drawn) [Compound 14]
pIC50 [1]: 8.57 | pIC50 ([2]; Homo sapiens, MIA PaCa-2, 72 h): 6.48 | pIC50 [3, 5]: 8.89

[2H]C([2H])([2H])S(=O)(=Nc1nc(-n2cc(F)c3cnc(Nc4cc5c6c(c4)CN(C)C[C@H]6CCC5)nc32)ccc1F)C([2H])([2H])[2H] [Compound 70]
pIC50 [1]: 8.74 | pIC50 ([2]; Homo sapiens, MIA PaCa-2, 72 h): 7.05 | pIC50 [3, 5]: 8.96

From patent US20240182482A1, “FUSED CYCLIC COMPOUND AS WEE-1 INHIBITOR, PREPARATION METHOD THEREFOR AND USE THEREOF” (WIGEN BIOMEDICINE TECHNOLOGY (SHANGHAI) CO., LTD., priority 2021, published 2024)
